Results from patent publication US11241436B2, “Autophagy inducers for treatment of CNS conditions” (Northwestern University, priority 2017, dated 2022).

Columns and labels:
[1] = test system: CB1R signaling; assay: CB1R signaling in brain (phosphorylation of MEK and JNK) after chronic WIN; format: in vivo, mouse; settings: repeated WIN dosage 14 d, then acute WIN 1 h
Protocol: WT mice were treated with either daily WIN or vehicle for 14 d, and then subject to an acute dosage of WIN 1 h prior to collection of brain samples.
To investigate whether restoration of CB1R signaling underlies the behavioral regulation by autophagy activation, the level and functionality of CB1R in mouse brain after co-administration of chronic cannabinoids and autophagy inducers were analyzed. […] To determine whether the increased level of CB1R represents CB1R re-sensitization in the brain, the agonist-induced phosphorylation of signaling kinases downstream of CB1R after chronic WIN exposure were analyzed.

[2] = test system: HEK293 cells stably expressing APP; assay: Dot blot of secreted Aβ42 in conditioned media of APP-HEK293 cells; format: cell-based, human
Protocol: Cells were transfected with non-targeting control (NC) or ATG7 siRNA 24 h prior to ML246 treatment. Results are quantified from 4 independent experiments.
In addition to Becn2^F121A-mediated genetic activation of autophagy, it was decided to further study whether stimulating autophagy pharmacologically is also protective against neurodegenerative progression. A brain-penetrable autophagy-inducing small molecule ML246 (metarrestin) was recently identified, and analyzed its effects on the clearance of aggregate-prone proteins in vitro and in vivo. For in vitro analyses, the HEK293 cell line stably expressing APP (APP-HEK293) was utilized, in which the produced Aβ molecules are efficiently secreted, to study the effect of ML246 on amyloid metabolism. […] In addition, cultured WT primary cortical neurons treated with the conditioned media from ML246-treated APP-HEK293 cells underwent a lower level of apoptotic cell death than those treated with media from vehicle-treated APP-HEK293 cells (FIG. 18B).
Dot blot assay. […] Protein concentration was quantified using BCA Assay (Pierce). […] The membrane was stained with Ponceau S, and the dot blot signal on the membrane was detected by immunostaining with Aβ42 antibody (Invitrogen, 700254, 1:1000) and HRP-conjugated secondary antibody (Santa Cruz Biotechnology, sc2004, 1:2000). […]

[3] = test system: WT mice; assay: Analgesic tolerance test during chronic WIN treatment; format: in vivo, mouse; settings: WT mice, co-treatment with daily WIN for 14 d, compared with vehicle
Protocol: Briefly, mice were injected with WIN for 14 d, and analgesic tolerance was measured without WIN treatment on day 0, and after 1-h WIN treatment on day 1 and day 14.
There were no genotype differences either in basal pain sensitivity to infrared heat-generated pain (agonist-free, day 0) (FIG. 2C), or in analgesic effects of acute WIN treatment prior to chronic WIN administration (day 1) (FIG. 2D).

[4] = test system: WT primary cortical neurons; assay: TUNEL assay of primary cortical neurons treated with conditioned media of APP-HEK293 cells; format: cell-based, mouse
Protocol: Nuclei were stained with DAPI. Scale bar, 100 μm. N=10 fields (each field containing 20-30 neurons).
TUNEL assays. APP-HEK293 cells were cultured in 6-well dishes for 24 h and then the media was replaced with neuronal culture media. After 48 h, conditioned media was collected and used to treat primary cortical neurons (12 DIV) cultured on poly-L-lysine coated slides for another 24 h. Apoptotic neurons were detected by the In Situ Cell Death Detection Kit, TMR red (Roche, cat. #12156792910) according to the manufacturer's instructions. Nuclei were stained using the mounting medium containing DAPI (Vectashield). Quantification of red TUNEL-positive neurons was done using the NIS Elements software.

[5] = test system: HTT65Q and HTT103Q aggregates; assay: Filter trap assay of polyQ HTT aggregates in HeLa cells; format: cell-based
Protocol: Cells were transfected with nontargeting control (NC) or ATG7 siRNA 24 h prior to Rg2 treatment for another 24 h. HTT aggregates were analyzed by lysate filtration through 0.2 μm nitrocellulose membrane. Cells treated with tetracycline served as negative control.
ML246 promotes the removal of intracellular aggregates formed by polyglutamine (polyQ)-expansion proteins. HeLa cell lines stably expressing tetracycline-repressible expanded polyQ-repeat protein HTT (huntingtin) was used as a model, HTT65Q and HTT103Q. In contrast to the HTT protein with the normal number of glutamine repeats (HTT25Q), HTT65Q and HTT103Q formed insoluble polyQ aggregates larger than 0.2-μm diameter, which can be detected by filter trap assay. […] Fluorescence imaging further confirmed that ML246 administration decreased the number of cells positive for HTT aggregates, which is also in an ATG7-dependent manner (FIG. S6B).
Accordingly, whether Rg2 affects the clearance of proteinaceous inclusions in vitro was next determined, using HeLa cell lines expressing tetracycline-repressible expanded polyglutamine (polyQ)-repeat protein HTT (huntingtin), HTT65Q and HTT103Q. Unlike the HTT protein with the normal number of glutamine repeats (HTT25Q), HTT65Q and HTT103Q formed insoluble polyQ aggregates larger than 0.2-μm diameter, which were detected by filter trap assays (FIG. 5A).
Filter trap assay. HeLa cells stably expressing CFP-HTT25Q, CFP-HTT65Q and CFP-HTT103Q were treated with 100 ng/ml tetracycline (IBI Scientific, IB02200) for 48 h, or 0.5 μM ML246 for 24 h with control or ATG7 siRNA (GE Dharmacon ON-TARGETplus control or ATG7 SMARTpool siRNA) for 48 h. Cells were then collected and lysed in lysis buffer containing 0.5% NP-40 for 30 min at 4° C. After centrifugation, the pellet was digested with 0.5 mg/ml DNasel (in 20 mM Tris-Cl, pH 8.0) for 1 h at 37° C., and dissolved into lysates containing insoluble aggregates by 2% SDS, 50 mM DTT and 20 mM EDTA. The lysates were then added onto 0.2 μm nitrocellulose membrane that was pre-equilibrated with 2% SDS/TBS for 30 min, and were filtered through the membrane by gentle vacuum using the Bio-Dot SF microfiltration apparatus (Bio-Rad). The signal was detected by immunostaining with the HRP-conjugated GFP antibody (Santa Cruz Biotechnology, sc9996, 1:1000).

[6] = mouse, in vivo

| SMILES | CB1R (CNR1) signaling: phosphorylation of MEK and JNK [1] | level of secreted Aβ in the conditioned media ([2]; APP-HEK293 cells, 24 h) | ML246-mediated reduction of secreted Aβ42 ([2]; siRNA knockdown of ATG7) | pain-relieving effect of WIN on day 14 [3] | apoptotic cell death of neurons ([4]; conditioned media from ML246-treated APP-HEK293 cells vs vehicle-treated) | ML246-mediated reduction of apoptotic neuronal death ([4]; siRNA knockdown of ATG7 in APP-HEK293 cells) | accumulation of HTT65Q and HTT103Q aggregates ([5]; 0.5 μM ML246, 24 h) | reduction of HTT65Q and HTT103Q aggregates ([5]; ML246 with knockdown of ATG7) | food intake [6] | accumulation of HTT65Q and HTT103Q aggregates ([5]; Rg2, 24 h) | effect on HTT aggregates ([5]; Rg2 with knockdown of ATG7) |
| --- | --- | --- | --- | --- | --- | --- | --- | --- | --- | --- | --- |
| N=c1c2c(-c3ccccc3)c(-c3ccccc3)n(Cc3ccccc3)c2ncn1[C@H]1CC[C@H](O)CC1 [ML246] | rescued | significantly reduced | reversed | potently rescued | lower level | reversed | decreased | prevents this reduction | – | – | – |
| CC(C)=CCC[C@](C)(O)[C@H]1CC[C@]2(C)[C@@H]1[C@H](O)C[C@@H]1[C@@]3(C)CC[C@H](O)C(C)(C)[C@@H]3[C@@H](O[C@@H]3O[C@H](CO)[C@@H](O)[C@H](O)[C@H]3O[C@@H]3O[C@@H](C)[C@H](O)[C@@H](O)[C@H]3O)C[C@]12C [Rg2, ginsenoside Rg2] | rescued | – | – | potently rescued | – | – | – | – | does not alter | decreased accumulation | abolished |
